Measured values taken from patent US20260055060A1, “USE OF (ISOINDOLIN-2-YL)(4-HYDROXY-3-(ISOINDOLINE-2-CARBONYL)PHENYL)METHANONES IN THE TREATMENT OF TUMOR NECROSIS FACTOR RECEPTOR-ASSOCIATED PROTEIN 1 DYSFUNCTION” (UNIVERSITY OF NOTRE DAME DU LAC, priority 2022, published 2026).
Entries after “also recorded” stand apart in the source; their conditions may differ.

How the values were obtained:
Hsp90β = target: T1, Hsp90β (Homo sapiens, UniProt P08238); assay: Fluorescence polarization assay (FITC-GDA tracer displacement), Hsp90β; format: binding; conditions: Table 1; concentration at which tracer 50% displaced, reported as Kd
T1 construct: 50 μL of assay buffer containing 10 nM of Hsp90, Hsp90a, Grp94, or Trap1 were added to each well

HeLa cells [1] = assay: Mitochondrial fuel oxidation with BPTES, UK5099 and etomoxir; format: cell-based
HeLa cells [2] = assay: Seahorse mitochondrial function (oligomycin, FCCP, rot/AA injections), HeLa; format: cell-based; conditions: 6 hr pretreatment
HeLa cells [3] = assay: TMRM staining for mitochondrial membrane potential; format: cell-based; conditions: 6 h treatment, 25 μM and 50 μM
HeLa cells [4] = assay: Seahorse XFe oxygen consumption rate, HeLa; format: cell-based; conditions: 6 h treatment, significant at 25 μM and 50 μM
HeLa cells [5] = assay: Cellular ATP production rate (glycolysis vs mitochondrial); format: cell-based; conditions: oligomycin and rot/AA injections
22RV1 cells [6] = assay: Seahorse mitochondrial function (oligomycin, FCCP, rot/AA injections), 22Rv1; format: cell-based; conditions: 6 hr pretreatment
[7] = test system: cytosolic Hsp90 clients, Akt and Cdk4, Hsp70; assay: Western blot for cytosolic Hsp90 clients and Hsp70 induction; format: cell-based; conditions: HeLa and 22Rv1 cells, 6 h treatment
[8] = test system: TRAP1-dependent client proteins NDUFS1, glutaminase-1, and Sirt3; assay: Western blot for degradation of TRAP1 client proteins; format: cell-based; conditions: for degradation of TRAP1-dependent client proteins NDUFS1, glutaminase-1, Sirt3: HeLa and 22Rv1 cells, 6 h treatment
22RV1 cells [9] = assay: Seahorse XFe oxygen consumption rate, 22Rv1; format: cell-based; conditions: 6 h treatment, significant at 25 μM and 50 μM
[10] = test system: TRAP1-dependent client proteins NDUFS1, glutaminase-1, and Sirt3; conditions: literature report; cited from earlier work

T1 sequence (P08238 whole entry): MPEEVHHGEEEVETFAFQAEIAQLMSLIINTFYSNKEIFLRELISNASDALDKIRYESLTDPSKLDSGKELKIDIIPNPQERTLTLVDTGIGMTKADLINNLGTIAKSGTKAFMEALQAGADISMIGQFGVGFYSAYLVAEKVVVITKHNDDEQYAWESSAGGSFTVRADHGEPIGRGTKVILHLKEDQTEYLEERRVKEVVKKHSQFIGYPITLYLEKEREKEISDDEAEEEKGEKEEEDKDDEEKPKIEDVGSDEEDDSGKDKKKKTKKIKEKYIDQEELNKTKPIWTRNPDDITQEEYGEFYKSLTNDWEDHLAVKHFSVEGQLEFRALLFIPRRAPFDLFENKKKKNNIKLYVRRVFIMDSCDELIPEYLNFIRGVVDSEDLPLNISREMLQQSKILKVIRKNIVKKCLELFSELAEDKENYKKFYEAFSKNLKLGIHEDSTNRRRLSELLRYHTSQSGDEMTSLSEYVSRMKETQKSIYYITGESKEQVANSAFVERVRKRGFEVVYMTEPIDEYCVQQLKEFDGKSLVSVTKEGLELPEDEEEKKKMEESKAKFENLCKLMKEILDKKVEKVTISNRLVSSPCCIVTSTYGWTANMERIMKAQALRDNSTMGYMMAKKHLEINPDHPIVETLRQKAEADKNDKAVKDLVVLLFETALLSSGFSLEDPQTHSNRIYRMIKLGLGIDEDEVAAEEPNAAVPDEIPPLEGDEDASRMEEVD

Compound | Kd (Hsp90β) | mitochondrial glutamine, fatty acid, and glucose oxidation (HeLa cells [1]; 6 hr treatment, 32 at 50 μM) | response of basal OCR to BPTES, UK5099, etomoxir (HeLa cells [1]; HeLa cells, 2 hr incubation, 50 μM) | proton leak, maximal respiration, non-mitochondrial O2 consumption, spare respiratory capacity (HeLa cells [2]) | TMRM fluorescence / mitochondrial membrane potential (HeLa cells [3]) | oxygen consumption rate / OXPHOS (HeLa cells [4]) | cellular ATP production via oxidative phosphorylation or glycolysis (HeLa cells [5]) | proton leak, maximal respiration, non-mitochondrial O2 consumption, spare respiratory capacity (22RV1 cells [6]) | degradation of cytosolic Hsp90 clients Akt and Cdk4, induction of Hsp70 [7] | degradation of TRAP1-dependent client proteins NDUFS1, glutaminase-1, Sirt3 [8] | expression of TRAP1 clients NDUFS1, glutaminase-1, Sirt3 ([8]; HeLa cells, 2 hr treatment, up to 50 μM) | oxygen consumption rate / OXPHOS (22RV1 cells [9]) | degradation of TRAP1 client proteins (reported by Yoon, N. G. et al.) [10]
O=C(c1cc(C(=O)N2Cc3ccccc3C2)c(O)cc1O)N1Cc2ccccc2C1 [Compound 4] | 1 ± 0.05 µM | – | – | – | – | – | – | – | – | – | – | – | –
O=C(c1ccc(O)c(C(=O)N2Cc3ccc(OCCC[P+](c4ccccc4)(c4ccccc4)c4ccccc4)cc3C2)c1)N1Cc2cccc(F)c2C1 [Compound 35, (3-((2-(5-(4-Fluoroisoindoline-2-carbonyl)-2-hydroxybenzoyl)isoindolin-5-yl)oxy)propyl)triphenylphosphonium hexafluorophosphate(V)] | – | reduced OCR (oxygen consumption rate) and prevented measurement | unresponsive to BPTES, UK5099, and etomoxir | decreased | marked decrease in TMRM fluorescence; also recorded: disrupt the mitochondrial membrane potential | statistically significant reduction of oxygen consumption; also recorded: significant dose-dependent decrease in OXPHOS; also recorded: inhibit OXPHOS | alter cellular metabolism towards glycolysis | decreased | without inducing the degradation | dose-dependent and selective degradation | dose-dependently decreased | significant dose-dependent decrease in OXPHOS; also recorded: statistically significant reduction of oxygen consumption; also recorded: inhibit OXPHOS | –
COc1cccc2c1CN(C(=O)c1ccc(O)c(C(=O)N3Cc4ccc(OCCC[P+](c5ccccc5)(c5ccccc5)c5ccccc5)cc4C3)c1)C2 [Compound 36, (3-((2-(2-Hydroxy-5-(4-methoxyisoindoline-2-carbonyl)benzoyl)isoindolin-5-yl)oxy)propyl)triphenylphosphonium hexafluorophosphate(V)] | – | – | – | decreased | marked decrease in TMRM fluorescence; also recorded: disrupt the mitochondrial membrane potential | statistically significant reduction of oxygen consumption; also recorded: significant dose-dependent decrease in OXPHOS; also recorded: inhibit OXPHOS | alter cellular metabolism towards glycolysis | decreased | without inducing the degradation | dose-dependent and selective degradation | – | significant dose-dependent decrease in OXPHOS; also recorded: statistically significant reduction of oxygen consumption; also recorded: inhibit OXPHOS | –
COC1=C(OC)C(=O)C(CCCCCCCCCC[P+](c2ccccc2)(c2ccccc2)c2ccccc2)=C(C)C1=O [MitoQ, reference compound] | – | – | – | decreased | marked decrease in TMRM fluorescence | – | – | decreased | – | – | – | – | induce the degradation of these clients
gamitrinib [reference compound] | – | – | – | decreased | marked decrease in TMRM fluorescence | – | – | decreased | pan-Hsp90 inhibition | – | – | – | –
